US12527772B2, “Pharmaceutical combination comprising ponesimod” (Vanda Pharmaceuticals Inc., priority 2017, dated 2026)

Columns and labels:
Type in all cases: in vivo
[1] = system: acute monophasic models of experimental autoimmune encephalomyelitis (EAE); assay: first pilot experiment, acute monophasic rat EAE model: clinical scores; settings: female Lewis rats, teriflunomide 1 mg/kg oral q.d. from day 0
Protocol: The efficacy of teriflunomide and ponesimod in acute monophasic models of experimental autoimmune encephalomyelitis (EAE) can be determined in a pilot experiment. Female Lewis rats are immunized with an emulsion of myelin basic protein (MBP) from Guinea pig in complete Freund's adjuvant. A total of 200 micrograms of MBP is injected per rat at two sites subcutaneously (right paw and base of tail). Within 10 days the rats develop signs of paralysis which will be graded on a scale from 0 to 15 assessing the tail and each limb individually according to the method originally described by Weaver A. et al., FASEB J., 2005, 19(12): 1668-1670. The disease takes an acute monophasic course and is self-remitting. Usually by day 21 clinical scores reach values below 3.0. Groups of 10 rats are dosed orally starting at the day of disease induction (day 0) with different doses of teriflunomide in the range between 1 and 10 mg/kg once daily (q.d.) or with 30 mg/kg ponesimod q.d. Clinical scores are assessed on a daily basis and disease development is compared between vehicle-treated rats and rats receiving teriflunomide or ponesimod (vehicle: 0.5% Methylcellulose/0.5% Tween® 80/water). In parallel, body weights of the rats are monitored on a daily basis to follow general health. Hematology parameters, including lymphocyte counts, are measured at 3 different time points: 6 and 24 hours after the oral gavage at day 20 and at the termination of the experiment at day 21, 3 hours post dosing. Plasma samples can be taken for compound concentration determination and for the measurement of protein markers. Based on the first pilot experiment described above one dose of teriflunomide is selected for the combination efficacy experiment.

[2] = system: acute monophasic rat EAE model; assay: combination efficacy experiment, acute monophasic rat EAE model: clinical scores; settings: for efficacy on the clinical course of EAE (average clinical score, FIG. 1): each compound alone, ponesimod 30 mg/kg q.d., teriflunomide 1 mg/kg q.d., from day 0, 21 days study; for severity of the disease (maximal clinical score reached over the 21 days study, FIG. 2): ponesimod 30 mg/kg q.d. and/or teriflunomide 1 mg/kg q.d. from day 0
Protocol: Female Lewis rats are immunized with an emulsion of myelin basic protein (MBP) from Guinea pig in complete Freund's adjuvant. A total of 200 micrograms of MBP is injected per rat at two sites subcutaneously (right paw and base of tail). Within 10 days the rats develop signs of paralysis which will be graded on a scale from 0 to 15 assessing the tail and each limb individually according to the method originally described by Weaver A. et al., FASEB J., 2005, 19(12): 1668-1670. The disease takes an acute monophasic course and is self-remitting. Usually by day 21 clinical scores reach values below 3.0.
(§1) Groups of 10 rats are dosed orally starting at the day of disease induction (day 0) with different doses of teriflunomide in the range between 1 and 10 mg/kg once daily (q.d.) or with 30 mg/kg ponesimod q.d. Clinical scores are assessed on a daily basis and disease development is compared between vehicle-treated rats and rats receiving teriflunomide or ponesimod (vehicle: 0.5% Methylcellulose/0.5% Tween® 80/water). In parallel, body weights of the rats are monitored on a daily basis to follow general health. Hematology parameters, including lymphocyte counts, are measured at 3 different time points: 6 and 24 hours after the oral gavage at day 20 and at the termination of the experiment at day 21, 3 hours post dosing. Plasma samples can be taken for compound concentration determination and for the measurement of protein markers.
The combination efficacy experiment is performed in the same rat EAE model as described for the first pilot experiment. It consists of four treatment groups: • 1. Vehicle (0.5% Methylcellulose/0.5% Tween® 80/water) q.d., from day 0 • 2. Teriflunomide (1 mg/kg) q.d., from day 0 • 3. Ponesimod (30 mg/kg) q.d., from day 0 • 4. Teriflunomide (1 mg/kg) q.d., from day 0+ponesimod (30 mg/kg) q.d., from day 0
In life and termination endpoints are the same as described for the first pilot experiment.
Data collected in the pilot experiment are similar to those obtained in the combination study and therefore are used to increase the monotherapy groups size in order to increase sensitivity as described by Bate S. et al., PLoS One., 2014, 9(12): e114872. […] When combined, the two compounds benefit from each other.

[3] = combination efficacy experiment, acute monophasic rat EAE model: body weight; settings: ponesimod 30 mg/kg q.d. from day 0; over the 21 days study
Protocol: as §1, with “markers. The combination efficacy experiment is performed in the same rat EAE model as described for the first pilot experiment. It consists of four treatment groups: • 1. Vehicle (0.5% Methylcellulose/0.5% Tween® 80/water) q.d., from day 0 • 2. Teriflunomide (1 mg/kg) q.d., from day 0 • 3. Ponesimod (30 mg/kg) q.d., from day 0 • 4. Teriflunomide (1 mg/kg) q.d., from day 0+ponesimod (30 mg/kg) q.d., from day 0 In life and termination endpoints are the same as described for the first pilot experiment. […]” for “markers.”

[4] = system: lymphocytes; assay: first pilot experiment, rat EAE model: hematology, lymphocyte counts; settings: ponesimod 30 mg/kg oral q.d.; over 24 hours
Protocol: as §1, with “markers. Based on the first pilot experiment described above one dose of teriflunomide is selected for the combination efficacy experiment.” for “markers.”

[5] = teriflunomide alone 1 mg/kg q.d. from day 0

SMILES	disease onset [1]	efficacy on EAE scores [1]	severity of the disease [1]	efficacy on the clinical course of EAE (average clinical score, FIG. 1) [2]	severity of the disease (maximal clinical score reached over the 21 days study, FIG. 2) [2]	disease onset (FIG. 1) [2, 5]	efficacy on EAE scores (FIG. 1 and FIG. 2) [2, 5]	body weight loss (FIG. 3 and FIG. 4) [3]	reduction of lymphocytes [4]	effect on clinical score during the ascending phase (FIG. 1) ([2]; ponesimod 30 mg/kg q.d. from day 0)
C/C(O)=C(\C#N)C(=O)Nc1ccc(C(F)(F)F)cc1 [teriflunomide, (Z)-2-cyano-3-hydroxy-but-2-enoic acid-(4-trifluoromethylphenyl)-amide]	strong delay of disease onset	partial efficacy	without affecting the severity of the disease	moderate efficacy	no effect	strong delay of disease onset	partial efficacy	–	–	–
CCC/N=C1\S/C(=C\c2ccc(OC[C@H](O)CO)c(Cl)c2)C(=O)N1c1ccccc1C [ponesimod, (R)-5-[3-chloro-4-(2,3-dihydroxy-propoxy)-benz[Z]ylidene]-2-([Z]-propylimino)-3-o-tolyl-thiazolidin-4-one]	–	–	–	moderate efficacy	no effect	–	–	reduction in body weight loss	partial reduction of lymphocytes	moderate effect
